Reference: patent publication US20250129048A1, “MELANOCORTIN 4 RECEPTOR ANTAGONISTS AND USES THEREOF” (Pfizer Inc., priority 2021, published 2025)

Assays:
hMC4R = hMC4R (Homo sapiens (Human), UniProt P32245); test: In vitro binding affinity assay using hMC4R (radioligand competition binding, CHO cell membranes); conditions: competition with [125I]-(Nle4, D-Phe7)-α-MSH 0.5 nM; Ki from IC50 by Cheng-Prusoff; read-out: Ki (nM) geometric mean
Method: The binding affinity of test compounds at the α-melanocyte-stimulating hormone receptor (hMC4R) was assessed using a radioligand competition binding assay. Recombinant Chinese hamster ovaries (CHO) cells stably expressing hMC4R (PerkinElmer #ES-191-C) were used for competitive binding. hMC4R membranes were grown in Dulbecco's Modified Essential Medium and Ham's F-12 Medium (DMEM/F12), 10% heat inactivated fetal bovine serum (FBS), 0.4 mg/mL Geneticin and 2 mM L-glutamine. Cell membranes were bulked and frozen until the assay was performed.
Compounds were solubilized in 100% dimethyl sulfoxide (DMSO) to a concentration of 30 mM. A 10-point intermediate dilution series using half log dilutions was created in 100% DMSO with a top concentration of 0.03 mM. The serially diluted compounds were spotted as 1 μL/well, in 96-well Costar 3363 plates. The final compound range in the assay was 300 nM to 0.01 nM with a final DMSO concentration of 1%. Control wells, containing 1 μL of 2 mM ([…]) alpha-melanocyte stimulating hormone (α-MSH-Tocris #2584) was added to the non-specific binding wells and 1 μL 100% DMSO for the total binding control wells. This was followed by the addition of 80 μL of assay buffer [25 mM HEPES, 5 mM MgCl2, 2.5 mM CaCl2, 150 mM NaCl, Complete EDTA-free Protease Inhibitor Tablet (Thermo Scientific #11873580001) and 0.25% BSA]. […] The exact concentration of radioligand used for each experiment was determined by liquid scintillation counting and adjusted if necessary.
Frozen hMC4R cell membranes were thawed and Dounce homogenized. Homogenates were resuspended in assay buffer to a concentration of 2 μg per well. […] The plates were incubated for 2 hours at room temperature. Assay samples were then rapidly filtered through Unifilter-96 GF/B PEI coated filter plates using a filter plate harvester (PerkinElmer) and rinsed with ice-cold wash buffer [25 mM (4-(2-hydroxyethyl)-1-piperazineethanesulfonic acid (HEPES), 1 mM MgCl2, 2.5 mM CaCl2, and 500 mM NaCl]. Filter plates were dried overnight at room temperature. Plates were then bottom-sealed prior to the addition of 50 μL/well Ultima Gold XR scintillation fluid (PerkinElmer 6013111). Plates were then top-sealed, incubated for 60 minutes at room temperature and then the amount of radioactivity present was determined by liquid scintillation counting on a Microbeta Trilux (PerkinElmer #2450-0060).
The raw data (expressed as counts per minute) were analyzed using ActivityBase (IDBS Data Management Software). […] Equilibrium dissociation constant for inhibitor of ligand and receptor interaction (Ki) values were then calculated from the IC50 values using the Cheng-Prusoff equation: Ki=IC50/(1+([L]/Kd)), where [L] is the concentration of the radioligand used in the experiment and Kd is the affinity of the radioligand (determined in separate saturation experiments).

[1] = biological target: human Melanocortin-4 receptor (MC4R) (Homo sapiens (Human), UniProt P32245); test: Functional in vitro MC4R antagonist potency assay (intracellular cAMP, HTRF, CHO cells); type: cell-based; conditions: cAMP after EC80 agonist stimulation (200 nM αMSH); Kb from IC50 by Leff-Dougall equation; read-out: Kb (nM) Antagonist geometric mean
Method: The functional in vitro antagonist potency for test compounds was determined by monitoring intracellular cyclic adenosine monophosphate (cAMP) levels in Chinese hamster ovary (CHO—) cells stably expressing the human Melanocortin-4 receptor (MC4R). Following agonist activation, human MC4R associates with the G-protein complex causing the Ga subunit to exchange bound GDP for GTP, followed by dissociation of the Gα-GTP complex. The activated Ga subunit can couple to downstream effectors to regulate the levels of second messengers or cAMP within the cell. Thereby, determination of intracellular cAMP levels allows for pharmacological characterization. Intracellular cAMP levels are quantitated using a homogenous assay utilizing the Homogeneous Time-Resolved Fluorescence (HTRF) technology from CisBio. The method is a competitive immunoassay between native cAMP produced by cells and the cAMP labelled with the acceptor dye, d2. The two entities then compete for binding to a monoclonal anti-cAMP antibody labeled with cryptate. The specific signal is inversely proportional to the concentration of cAMP in the cells.
Test compounds were solubilized to 30 mM in 100% dimethyl sulfoxide (DMSO) and stored. An 11-point dilution series using 1 in 3 162-fold serial dilutions was created in 100% DMSO with a top concentration of 800 μM. The serially diluted compound was spotted into a 384-well plate (Greiner, Cat No. 781280) at 40 nL/well with duplicate points at each concentration, and then diluted 1 in 1000 with 40 μL assay buffer containing HBSS, 20 mM HEPES (Invitrogen), 0.1% BSA, and 250 μM IBMX (Sigma Aldrich) to create an intermediate plate at 2× final assay concentration (FAC). The final compound concentration range in the assay was 400 nM to […], with a final DMSO concentration of 0.1%.
In-house generated CHO cells stably expressing the Gs-coupled human MC4R receptor were plated in 384-well assay plates (Corning, Cat No. 3570) in 50 μL/well of Ham's F-12 containing 10% heat inactivated FBS, 1× penicillin/streptomycin, 1 mM Glutamax (Invitrogen) at a density of 2,500 cells per well and incubated at 37° C. (95% O2: 5% CO2) overnight, with micro-clime lids (Labcyte, Cat No. LLS-0310). On day of assay, media was removed from the assay plate through gentle flicking and blotting plate on a paper towel and replaced with 5 μL of 2× antagonist compound in assay buffer (HBSS, 20 mM HEPES, 0.1% BSA, 250 μM IBMX) and 0.1% DMSO. Cells were incubated with compound for 30 minutes at 37° C. (95% O2: 5% CO2) before addition of 5 μL EC80 agonist stimulation (200 nM α-melanocyte stimulating hormone, αMSH, Bachem) and another 30-minute incubation at 37° C. (95% O2: 5% CO2). Intracellular cAMP levels were quantified as per Cisbio's protocol (5 μL of D2 and then 5 μL Cryptate, incubated for 1-2 hours at room temperature). Samples were measured on an Envision plate reader (PerkinElmer Life and Analytical Sciences; excitation, 320 nm; emission, 665 nm/620 nm).
Data were analyzed using the ratio of fluorescence intensity at 620 and 665 nm for each well, extrapolated from the cAMP standard curve to express data as nM cAMP for each well. Data expressed as nM cAMP were then normalized to control wells using Activity Base (IDBS). Zero percent effect (ZPE) was defined as nM of cAMP generated from EC80 agonist stimulation (200 nM αMSH). In the absence of an antagonist control compound, one hundred percent effect (HPE) was defined as nM of cAMP generated from assay buffer/vehicle only.

hMC4R, sequence (P32245 whole entry): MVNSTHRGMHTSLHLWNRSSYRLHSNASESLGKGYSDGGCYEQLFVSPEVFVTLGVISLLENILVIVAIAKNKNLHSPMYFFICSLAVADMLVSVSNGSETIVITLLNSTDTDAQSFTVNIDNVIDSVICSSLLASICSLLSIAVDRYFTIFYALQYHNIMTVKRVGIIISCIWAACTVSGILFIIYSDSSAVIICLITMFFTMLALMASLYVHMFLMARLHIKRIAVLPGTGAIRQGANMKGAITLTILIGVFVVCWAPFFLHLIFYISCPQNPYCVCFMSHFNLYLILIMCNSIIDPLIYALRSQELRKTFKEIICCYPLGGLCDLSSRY
human Melanocortin-4 receptor (MC4R), sequence (P32245 whole entry): as above

Ki (hMC4R) [nM]	Kb [1] [nM]	SMILES
4.2	33	Cc1nc(N[C@H]2CCN(C(=O)Cc3ccc(F)cc3)C2(C)C)ccc1-c1cn(C)cn1 [Example 3B, 1-[(3S)-2,2-dimethyl-3-{[6-methyl-5-(1-methyl-1H-imidazol-4-yl)pyridin-2-yl]amino}pyrrolidin-1-yl]-2-(4-fluorophenyl)ethan-1-one]
1.2	19	COc1cc([C@@H](C)C(=O)N2CC[C@H](Nc3ccc(-c4nc(C(F)F)n(C5CC5)n4)c(C)n3)C2)c(F)cn1 [Example 8, (2R)-1-[(3S)-3-({5-[1-cyclopropyl-5-(difluoromethyl)-1H-1,2,4-triazol-3-yl]-6-methylpyridin-2-yl}amino)pyrrolidin-1-yl]-2-(5-fluoro-2-methoxypyridin-4-yl)propan-1-one]
0.51	2.1	COc1cc([C@@H](C)C(=O)N2CC[C@H](Nc3ccc(-c4nc5ccccn5n4)c(C)n3)C2)c(Cl)cn1 [Example 18, (2R)-2-(5-chloro-2-methoxypyridin-4-yl)-1-[(3S)-3-{[6-methyl-5-([1,2,4]triazolo[1,5-a]pyridin-2-yl)pyridin-2-yl]amino}pyrrolidin-1-yl]propan-1-one]
0.25	1.3	Cc1nc(N[C@H]2CCN(C(=O)Cc3cc(F)c(F)c(F)c3)C2)ccc1-c1cn(C)c(C(F)F)n1 [Example 28, 1-[(3S)-3-({5-[2-(difluoromethyl)-1-methyl-1H-imidazol-4-yl]-6-methylpyridin-2-yl}amino)pyrrolidin-1-yl]-2-(3,4,5-trifluorophenyl)ethan-1-one]
0.28	3.3	COc1cc(OC)cc([C@@H](C)C(=O)N2CC[C@H](Nc3ccc(-c4nc(C(F)(F)F)n(C)n4)c(C)n3)C2)c1 [Example 39, (2R)-2-(3,5-dimethoxyphenyl)-1-[(3S)-3-({6-methyl-5-[1-methyl-5-(trifluoromethyl)-1H-1,2,4-triazol-3-yl]pyridin-2-yl}amino)pyrrolidin-1-yl]propan-1-one]
0.91	9.5	COc1cc([C@@H](C)C(=O)N2CC[C@H](Nc3ccc(-c4nc5ccccn5n4)c(C)n3)C2)c(F)cn1 [Example 43, (2R)-2-(5-fluoro-2-methoxypyridin-4-yl)-1-[(3S)-3-{[6-methyl-5-([1,2,4]triazolo[1,5-a]pyridin-2-yl)pyridin-2-yl]amino}pyrrolidin-1-yl]propan-1-one]

SMILES	Ki (hMC4R) [nM]	Kb [1] [nM]
COc1cc([C@@H](C)C(=O)N2CC[C@H](Nc3ccc(-c4nc(C(C)(F)F)n(C)n4)c(C)n3)C2)c(F)cn1 [Example 4, (2R)-1-[(3S)-3-({5-[5-(1,1-difluoroethyl)-1-methyl-1H-1,2,4-triazol-3-yl]-6-methylpyridin-2-yl}amino)pyrrolidin-1-yl]-2-(5-fluoro-2-methoxypyridin-4-yl)propan-1-one]	1	9.6
COc1cc([C@@H](C)C(=O)N2CC[C@H](Nc3ccc(-c4nnn(C)n4)c(C)n3)C2)c(F)cn1 [Example 5, (2R)-2-(5-fluoro-2-methoxypyridin-4-yl)-1-[(3S)-3-{[6-methyl-5-(2-methyl-2H-tetrazol-5-yl)pyridin-2-yl]amino}pyrrolidin-1-yl]propan-1-one]	2.6	17
COc1cc([C@@H](C)C(=O)N2CC[C@H](Nc3ccc(-c4ncccn4)c(C)n3)C2)c(Cl)cn1 [Example 6, (2R)-2-(5-chloro-2-methoxypyridin-4-yl)-1-[(3S)-3-{[6-methyl-5-(pyrimidin-2-yl)pyridin-2-yl]amino}pyrrolidin-1-yl]propan-1-one]	1.1	2.2
[2H]C([2H])([2H])n1nc(-c2ccc(N[C@H]3CCN(C(=O)[C@H](C)c4cc(OC)ncc4F)C3)nc2C)nc1C(F)(F)F [Example 42, (2R)-2-(5-fluoro-2-methoxypyridin-4-yl)-1-[(3S)-3-({6-methyl-5-[1-(^2H3)methyl-5-(trifluoromethyl)-1H-1,2,4-triazol-3-yl]pyridin-2-yl}amino)pyrrolidin-1-yl]propan-1-one]	1.3	5.4
